Experimental data: patent publication US8258115B2, “Stable salts of S-adenosylmethionine and process for the preparation thereof” (priority 2007, dated 2012)

Experiments:
Format in all cases: physicochemical
[1] = Stability test in thermostated heaters at 40° C. and 75% R.H., active ingredient %; settings: heat-sealed aluminium/aluminium bags
Experimental: (§1) In the following Tables 2-13, the percentage values are repotted which were obtained in the stability tests carried out on the products of examples 1-6. The stability tests were carried out in thermostated heaters at 40° C. and 75% R.H (tables 2-7) as well as 25° C. and 60% R.H. (tables 8-13), preserving the samples in heat-sealed aluminium/aluminium bags according to the following criteria: the active ingredient % was determined for every sampling point taken under consideration.

[2] = Stability test in thermostated heaters at 25° C. and 60% R.H., active ingredient %; settings: heat-sealed aluminium/aluminium bags
Experimental: as §1

[3] = Degradation of the active stereoisomer S,S at 25° C. and 65% R.H.
Experimental: (§2) In the following Tables 14-25, the percentage values are reported of the degradation of the active stereoisomer S,S calculated at 40° C. and 75% R.H. (Tables 14-19) and at 25° C. and 65% R.H.

[4] = Degradation of the active stereoisomer S,S at 40° C. and 75% R.H.
Experimental: as §2

[5] = Moisture % K.F. of the stability samples; settings: sample used in the stability test
Experimental: In the following Tables 2-13, the percentage values are repotted which were obtained in the stability tests carried out on the products of examples 1-6. The stability tests were carried out in thermostated heaters at 40° C. and 75% R.H (tables 2-7) as well as 25° C. and 60% R.H. (tables 8-13), preserving the samples in heat-sealed aluminium/aluminium bags according to the following criteria: […]

## C[S+](CCC(N)C(=O)[O-])C[C@H]1O[C@@H](n2cnc3c(N)ncnc32)[C@H](O)[C@@H]1O.Cl.Cl.O=S(=O)([O-])[O-].[Mg+2] (some centres unmarked) [SAMe•2.0HCl•1.0MgSO4]
[1]; 30 days
  stability test percentage value (active ingredient %), 30 days: 0.27%
[1]; 60 days
  stability test percentage value (active ingredient %), 60 days: 0.49%
[1]; 90 days
  stability test percentage value (active ingredient %), 90 days: 0.67%
[1]; 120 days
  stability test percentage value (active ingredient %), 120 days: 1.46%
[1]; 180 days
  stability test percentage value (active ingredient %), 180 days: 1.62%
[2]; 30 days
  stability test percentage value (active ingredient %), 30 days: 0.19%
[2]; 90 days
  stability test percentage value (active ingredient %), 90 days: 0.28%
[2]; 180 days
  stability test percentage value (active ingredient %), 180 days: 0.41%
[2]; 360 days
  stability test percentage value (active ingredient %), 360 days: 0.65%
[2]; 720 days
  stability test percentage value (active ingredient %), 720 days: 0.87%
[3]; 30 days
  percentage of the active S,S stereoisomer remaining: 86.5%
[3]; 90 days
  percentage of the active S,S stereoisomer remaining: 95.6%
[3]; 180 days
  percentage of the active S,S stereoisomer remaining: 93.0%
[3]; 360 days
  percentage of the active S,S stereoisomer remaining: 91.1%
[3]; 720 days
  percentage of the active S,S stereoisomer remaining: 88.2%
[3]; T = 0
  percentage of the active S,S stereoisomer remaining: 98.0%
[4]; 30 days
  percentage of active S,S stereoisomer remaining: 89.9%
[4]; 60 days
  percentage of active S,S stereoisomer remaining: 87.9%
[4]; 90 days
  percentage of active S,S stereoisomer remaining: 83.0%
[4]; 120 days
  percentage of active S,S stereoisomer remaining: 79.1%
[4]; 180 days
  percentage of active S,S stereoisomer remaining: 73.3%
[4]; T = 0
  percentage of active S,S stereoisomer remaining: 98.0%
[5]
  Moisture % K.F.: 0.52%
